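Interpolation was linear, between the two tested concentrations surrounding the appropriate level; five concentrations were tested over 48 hours in 96-well plates. At the TGI there is no net growth.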
Experiments:
Test in all cases: NCI anticancer screen, dose series, 48 h
[1] = test system: 786-0 renal
[2] = test system: A498 renal
[3] = test system: A549 NSCLC
[4] = test system: ACHN renal
[5] = test system: BT-549 breast
[6] = test system: CAKI-1 renal
[7] = test system: CCRF-CEM leukemia
[8] = test system: COLO 205 colon
[9] = test system: EKVX NSCLC
[10] = test system: HCC-2998 colon
[11] = test system: HCT-116 colon
[12] = test system: HCT-15 colon
[13] = test system: HL-60(TB) leukemia
[14] = test system: HOP-62 NSCLC
[15] = test system: HOP-92 NSCLC
[16] = test system: HS 578T breast
[17] = test system: HT29 colon
[18] = test system: IGROV1 ovarian
[19] = test system: K-562 leukemia
[20] = test system: KM12 colon
[21] = test system: LOX IMVI melanoma
[22] = test system: M14 melanoma
[23] = test system: MALME-3M melanoma
[24] = test system: MCF7 breast
[25] = test system: MDA-MB-231 breast
[26] = test system: MDA-N
[27] = test system: MOLT-4 leukemia
[28] = test system: NCI-H226 lung
[29] = test system: NCI-H23 lung
[30] = test system: NCI-H460 lung
[31] = test system: NCI/ADR-RES ovarian
[32] = test system: OVCAR-3 ovarian
[33] = test system: OVCAR-4 ovarian
[34] = test system: OVCAR-5 ovarian
[35] = test system: OVCAR-8 ovarian
[36] = test system: PC-3 prostate
[37] = test system: RXF 393 renal
[38] = test system: SF-295 CNS
[39] = test system: SF-539 CNS
[40] = test system: SK-MEL-2 melanoma
[41] = test system: SK-MEL-28 melanoma
[42] = test system: SK-MEL-5 melanoma
[43] = test system: SK-OV-3 ovarian
[44] = test system: SN12C renal
[45] = test system: SNB-19 CNS
[46] = test system: SNB-75 CNS
[47] = test system: SR leukemia
[48] = test system: SW-620 colon
[49] = test system: TK-10 renal
[50] = test system: U251 CNS
[51] = test system: UACC-257 melanoma
[52] = test system: UACC-62 melanoma
[53] = test system: UO-31 renal

Measured: TGI

C[C@@H]1[C@H](O)CC2=C(CC[C@@H](O)C2(C)C)[C@@]1(CO)CCc1ccoc1
> 50 µM: all assays above
